Measurements from US8871681B2, “Herbicidal compositions comprising 4-amino-3-chloro-5-fluoro-6-(4-chloro-2-fluoro-3-methoxyphenyl) pyridine-2-carboxylic acid or a derivative thereof and certain sulfonylureas” (Dow AgroSciences LLC, priority 2012, dated 2014).

Legend:
[1] = tested on: SCPMA (Bolboschoenus maritimus or Schoenoplectus maritimus, sea clubrush); assay: In-water applied weed control, transplanted paddy rice, greenhouse (Example II); type: in vivo, Bolboschoenus maritimus (L.) Palla
Outline: (§1)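 Transplanted rice and weeds at first to fourth true leaf stage in flooded mud pots (2.5–3 cm water), greenhouse ~29/26 °C day/night. Herbicides alone or mixed, in 1.25% crop oil concentrate (acetone for technical material), injected into the flood; visual 0–100% injury after ~3 weeks, expected mixture effects by Colby.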

[2] = tested on: ECHOR (Echinochloa oryzoides, early watergrass); assay: as above; type: in vivo, Echinochloa oryzoides (Ard.) Fritsch
Outline: as §1

[3] = Table 28, second set, 70 gae/ha alone

COC(=O)c1ccccc1CS(=O)(=O)NC(=O)Nc1nc(OC)cc(OC)n1 [Bensulfuron-methyl, methyl 2-[[[[[(4,6-dimethoxy-2-pyrimidinyl)amino]carbonyl]amino]sulfonyl]methyl]benzoate, reference compound]
Visual Weed Control (%) - 21 DAA SCPMA Obs ([1]; Table 32, 17.5 gai/ha alone): 45%
Visual Weed Control (%) - 21 DAA SCPMA Obs ([1]; Table 32, 35 gai/ha alone): 90%
Visual Weed Control (%) - 25 DAA ECHOR Obs ([2]; Table 31, 35 gai/ha alone): 80%
Visual Weed Control (%) - 19 DAA ECHOR Obs ([2]; Table 31, 70 gai/ha alone): 78%
Visual Weed Control (%) - 25 DAA ECHOR Obs ([2]; Table 31, 70 gai/ha alone): 85%
Visual Weed Control (%) - 21 DAA ECHOR Obs ([2]; Table 32, 35 gai/ha alone): 0%
Visual Weed Control (%) - 21 DAA ECHOR Obs ([2]; Table 32, 70 gai/ha alone): 15%

COc1c(Cl)ccc(-c2nc(C(=O)O)c(Cl)c(N)c2F)c1F [Compound A Acid, 4-amino-3-chloro-5-fluoro-6-(4-chloro-2-fluoro-3-methoxy-phenyl)pyridine-2-carboxylic acid]
Visual Weed Control (%) - 20 DAA SCPMA Obs ([1]; Table 28, 8.75 gae/ha alone): 40%
Visual Weed Control (%) - 20 DAA SCPMA Obs ([1]; Table 28, 17.5 gae/ha alone): 20%
Visual Weed Control (%) - 20 DAA SCPMA Obs ([1]; Table 28, 35 gae/ha alone): 20%
Visual Weed Control (%) - 20 DAA SCPMA Obs [1, 3]: 0%
Visual Weed Control (%) - 20 DAA SCPMA Obs ([1]; Table 38, 35 gae/ha alone): 0%
Visual Weed Control (%) - 20 DAA SCPMA Obs ([1]; Table 38, 70 gae/ha alone): 0%
Visual Weed Control (%) - 20 DAA SCPMA Obs ([1]; Table 45, 42.4 gae/ha alone): 0%
Visual Weed Control (%) - 20 DAA SCPMA Obs ([1]; Table 45, 84.8 gae/ha alone): 0%
Visual Weed Control (%) - 20 DAA ECHOR Obs ([2]; Table 28, 8.75 gae/ha alone): 20%
Visual Weed Control (%) - 20 DAA ECHOR Obs ([2]; Table 28, 17.5 gae/ha alone): 30%
Visual Weed Control (%) - 20 DAA ECHOR Obs ([2]; Table 28, 35 gae/ha alone): 40%
Visual Weed Control (%) - 20 DAA ECHOR Obs ([2]; Table 28, second set, 35 gae/ha alone): 25%
Visual Weed Control (%) - 20 DAA ECHOR Obs [2, 3]: 35%
Visual Weed Control (%) - 25 DAA ECHOR Obs ([2]; Table 31, 8.75 gae/ha alone): 0%
Visual Weed Control (%) - 25 DAA ECHOR Obs ([2]; Table 31, 17.5 gae/ha alone): 0%
Visual Weed Control (%) - 25 DAA ECHOR Obs ([2]; Table 31, 35 gae/ha alone): 40%
Visual Weed Control (%) - 19 DAA ECHOR Obs ([2]; Table 31, 42 gae/ha alone): 15%
Visual Weed Control (%) - 22 DAA ECHOR Obs ([2]; Table 34, 10.6 gae/ha alone): 15%
Visual Weed Control (%) - 22 DAA ECHOR Obs ([2]; Table 34, 21.2 gae/ha alone): 30%
Visual Weed Control (%) - 22 DAA ECHOR Obs ([2]; Table 34, 42.4 gae/ha alone): 40%
Visual Weed Control (%) - 21 DAA ECHOR Obs ([2]; Table 36, 8.75 gae/ha alone): 10%
Visual Weed Control (%) - 21 DAA ECHOR Obs ([2]; Table 36, 17.5 gae/ha alone): 10%
Visual Weed Control (%) - 21 DAA ECHOR Obs ([2]; Table 36, 35 gae/ha alone): 15%
Visual Weed Control (%) - 21 DAA ECHOR Obs ([2]; Table 41, 10.6 gae/ha alone): 0%
Visual Weed Control (%) - 21 DAA ECHOR Obs ([2]; Table 41, 21.2 gae/ha alone): 15%
Visual Weed Control (%) - 21 DAA ECHOR Obs ([2]; Table 41, 42.4 gae/ha alone): 15%
Visual Weed Control (%) - 20 DAA ECHOR Obs ([2]; Table 43, 10.6 gae/ha alone): 10%
Visual Weed Control (%) - 20 DAA ECHOR Obs ([2]; Table 43, 21.2 gae/ha alone): 30%
Visual Weed Control (%) - 20 DAA ECHOR Obs ([2]; Table 43, 42.4 gae/ha alone): 45%

COc1c(Cl)ccc(-c2nc(C(=O)OCc3ccccc3)c(Cl)c(N)c2F)c1F [Compound A Benzyl Ester]
Visual Weed Control (%) - 20 DAA SCPMA Obs ([1]; Table 29, 4.38 gae/ha alone): 10%
Visual Weed Control (%) - 20 DAA SCPMA Obs ([1]; Table 29, 8.75 gae/ha alone): 0%
Visual Weed Control (%) - 20 DAA SCPMA Obs ([1]; Table 29, 17.5 gae/ha alone): 20%
Visual Weed Control (%) - 20 DAA SCPMA Obs ([1]; Table 29, 35 gae/ha alone): 0%
Visual Weed Control (%) - 20 DAA SCPMA Obs ([1]; Table 29, 70 gae/ha alone): 0%
Visual Weed Control (%) - 21 DAA SCPMA Obs ([1]; Table 32, 48 gae/ha alone): 0%
Visual Weed Control (%) - 21 DAA SCPMA Obs ([1]; Table 32, 96 gae/ha alone): 0%
Visual Weed Control (%) - 21 DAA SCPMA Obs ([1]; Table 33, 8 gae/ha alone): 0%
Visual Weed Control (%) - 21 DAA SCPMA Obs ([1]; Table 33, 16 gae/ha alone): 0%
Visual Weed Control (%) - 21 DAA SCPMA Obs ([1]; Table 33, 32 gae/ha alone): 0%
Visual Weed Control (%) - 20 DAA SCPMA Obs ([1]; Table 39, 35 gae/ha alone): 0%
Visual Weed Control (%) - 20 DAA SCPMA Obs ([1]; Table 39, 70 gae/ha alone): 0%
Visual Weed Control (%) - 20 DAA SCPMA Obs ([1]; Table 46, 35 gae/ha alone): 0%
Visual Weed Control (%) - 20 DAA SCPMA Obs ([1]; Table 46, 70 gae/ha alone): 0%
Visual Weed Control (%) - 21 DAA SCPMA Obs ([1]; Table 48, 8 gae/ha alone): 0%
Visual Weed Control (%) - 21 DAA SCPMA Obs ([1]; Table 48, 16 gae/ha alone): 0%
Visual Weed Control (%) - 21 DAA SCPMA Obs ([1]; Table 48, 32 gae/ha alone): 0%
Visual Weed Control (%) - 20 DAA ECHOR Obs ([2]; Table 29, 4.38 gae/ha alone): 10%
Visual Weed Control (%) - 20 DAA ECHOR Obs ([2]; Table 29, 8.75 gae/ha alone): 20%
Visual Weed Control (%) - 20 DAA ECHOR Obs ([2]; Table 29, 17.5 gae/ha alone): 30%
Visual Weed Control (%) - 20 DAA ECHOR Obs ([2]; Table 29, 35 gae/ha alone): 53%
Visual Weed Control (%) - 20 DAA ECHOR Obs ([2]; Table 29, 70 gae/ha alone): 73%
Visual Weed Control (%) - 21 DAA ECHOR Obs ([2]; Table 32, 8 gae/ha alone): 8%
Visual Weed Control (%) - 21 DAA ECHOR Obs ([2]; Table 32, 16 gae/ha alone): 5%
Visual Weed Control (%) - 22 DAA ECHOR Obs ([2]; Table 35, 17.5 gae/ha alone): 30%
Visual Weed Control (%) - 21 DAA ECHOR Obs ([2]; Table 37, 8.75 gae/ha alone): 25%
Visual Weed Control (%) - 21 DAA ECHOR Obs ([2]; Table 37, 17.5 gae/ha alone): 25%
Visual Weed Control (%) - 21 DAA ECHOR Obs ([2]; Table 42, 4.38 gae/ha alone): 15%
Visual Weed Control (%) - 21 DAA ECHOR Obs ([2]; Table 42, 8.75 gae/ha alone): 15%
Visual Weed Control (%) - 21 DAA ECHOR Obs ([2]; Table 42, 17.5 gae/ha alone): 20%
Visual Weed Control (%) - 20 DAA ECHOR Obs ([2]; Table 44, 8.75 gae/ha alone): 20%
Visual Weed Control (%) - 20 DAA ECHOR Obs ([2]; Table 44, 17.5 gae/ha alone): 30%
Visual Weed Control (%) - 21 DAA ECHOR Obs ([2]; Table 46, 4.38 gae/ha alone): 0%
Visual Weed Control (%) - 21 DAA ECHOR Obs ([2]; Table 46, 8.75 gae/ha alone): 10%
Visual Weed Control (%) - 21 DAA ECHOR Obs ([2]; Table 46, 17.5 gae/ha alone): 60%

COCC(=O)OC(c1ncccc1S(=O)(=O)NC(=O)Nc1nc(OC)cc(OC)n1)C(C)F (stereo not shown) [Flucetosulfuron, 1-[3-[[[[(4,6-dimethoxy-2-pyrimidinyl)amino]carbonyl]amino]sulfonyl]-2-pyridinyl]-2-fluoropropyl 2-methoxyacetate]
Visual Weed Control (%) - 21 DAA ECHOR Obs ([2]; Table 36, 0.1 gai/ha alone): 0%
Visual Weed Control (%) - 21 DAA ECHOR Obs ([2]; Table 36, 0.2 gai/ha alone): 0%
Visual Weed Control (%) - 21 DAA ECHOR Obs ([2]; Table 37, 0.1 gai/ha alone): 0%
Visual Weed Control (%) - 21 DAA ECHOR Obs ([2]; Table 37, 0.2 gai/ha alone): 0%

COC(=O)c1ccccc1S(=O)(=O)NC(=O)Nc1nc(C)nc(OC)n1 [Metsulfuron-methyl, methyl 2-[[[[(4-methoxy-6-methyl-1,3,5-triazin-2-yl)amino]carbonyl]amino]sulfonyl]benzoate, reference compound]
Visual Weed Control (%) - 21 DAA ECHOR Obs ([2]; Table 41, 7.5 gai/ha alone): 50%
Visual Weed Control (%) - 21 DAA ECHOR Obs ([2]; Table 41, 15 gai/ha alone): 65%
Visual Weed Control (%) - 21 DAA ECHOR Obs ([2]; Table 42, 7.5 gai/ha alone): 50%
Visual Weed Control (%) - 21 DAA ECHOR Obs ([2]; Table 42, 15 gai/ha alone): 65%
